Drawing on ChEMBL document CHEMBL2331106, “Discovery of 5-phenoxy-1,3-dimethyl-1H-pyrazole-4-carboxamides as potent agonists of TGR5 via sequential combinatorial libraries” (Bioorg Med Chem Lett, 2013), this text covers EC50, logD and microsomal CLint for four compounds.

Series [1] addresses T1, G-protein coupled bile acid receptor 1 (Homo sapiens, UniProt Q8TDU6).
T1 sequence (Q8TDU6 whole entry): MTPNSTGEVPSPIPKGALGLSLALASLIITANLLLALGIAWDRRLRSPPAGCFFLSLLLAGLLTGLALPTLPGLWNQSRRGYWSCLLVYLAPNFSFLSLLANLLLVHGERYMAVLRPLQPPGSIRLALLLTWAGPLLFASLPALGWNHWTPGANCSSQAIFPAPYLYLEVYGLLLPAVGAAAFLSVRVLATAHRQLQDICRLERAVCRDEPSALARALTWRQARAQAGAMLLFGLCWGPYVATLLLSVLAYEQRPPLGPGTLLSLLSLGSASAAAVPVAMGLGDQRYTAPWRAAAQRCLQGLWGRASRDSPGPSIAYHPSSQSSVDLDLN
Briefly: Agonist activity at human TGR5 receptor in CHO cells assessed as elevation of cAMP level by uninduced cAMP detection method in absence of doxycycline. In kind it is functional, cell-based. In general terms: Cyclic AMP is a second messenger, typically raised through Gs and lowered through Gi signalling.

The nature of series [2]: Distribution coefficient, log D of the compound by shake flask method. In kind it is physicochemical. The note with it: octanol/water.
Series [3] has as its target T1, G-protein coupled bile acid receptor 1. Kind of series: Agonist activity at doxycycline-promoter regulated overexpressed human TGR5 receptor in CHO cells assessed as elevation of cAMP level by induced-cAMP assay. In kind it is functional, cell-based.
The species entered for series [4] is Homo sapiens. Briefly: Ex vivo activation of TGR5 in human PBMC assessed as elevation of cAMP level by cAMP assay.
A short description of series [5]: Intrinsic clearance in human liver microsomes. In kind it is ADME, Microsome. Conditions: read-out: CLH. (Liver microsomes are a subcellular fraction often used to study metabolism.)

As a reminder, the EC50 is the concentration at which the effect is half-maximal. The term logD denotes the decadic logarithm of the distribution of all forms, ionised or not, between an organic phase and buffer at a given pH. Lower therefore signals a more hydrophilic compound. In the case of `Cc1nn(C)c(Oc2ccccc2)c1C(=O)N1CCCCC1c1cccnc1` (centres undefined), the 50% effective concentration (EC50) in series [1] is above 10000 nM; in series [3] it was 920 nM. This compound also registered a logD in series [2] of 2.4.
`Cc1nn(C)c(Oc2cccnc2)c1C(=O)N1CCCCC1c1cccnc1` (centres undefined): the EC50 in series [1] and in series [3] was above 10000 nM throughout. In series [2], this compound gave a logD of 1.4.
With `Cc1nn(C)c(Oc2cccc(Cl)c2Cl)c1C(=O)N1CCCC[C@@H]1c1cccnc1`, the EC50 in series [4] is 379 nM.
Take `Cc1ccc(N(C)C(=O)c2c(-c3ccccc3Cl)noc2C)cc1Cl`: in series [5], the microsomal CLint was above 320 µL/min/mg. The compound further registered a logD in series [2] of 3.6.
